In ChEMBL document CHEMBL1201862, “PubChem BioAssay data set” (2004):
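Protocol summary: plate cells (96-well), add compound at 5 concentrations, incubate 48 h, interpolate endpoints linearly. GI50 = concentration required for 50% inhibition of growth.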 Calls of active or inactive are those of the source. Rule as the data show it: active = GI50 up to about 1.1 µM and inactive = higher.

How the values were obtained:
Assay in all cases: NCI anticancer screen, dose series, 48 h
[1] = tested on: HCC 2998
[2] = tested on: OVCAR-4
[3] = tested on: NCI-H23
[4] = tested on: 786-0
[5] = tested on: NCI-H226
[6] = tested on: MCF7
[7] = tested on: A549
[8] = tested on: LOX IMVI
[9] = tested on: HCT-15
[10] = tested on: HOP-62
[11] = tested on: SW-620
[12] = tested on: SF-295
[13] = tested on: HT-29
[14] = tested on: HOP-92
[15] = tested on: BT-549
[16] = tested on: MDA-MB-435
[17] = tested on: COLO 205
[18] = tested on: SN12C
[19] = tested on: SNB-19
[20] = tested on: EKVX
[21] = tested on: UO-31
[22] = tested on: OVCAR-5
[23] = tested on: NCI-H460
[24] = tested on: PC-3
[25] = tested on: HCT-116
[26] = tested on: SK-MEL-5
[27] = tested on: OVCAR-3
[28] = tested on: U-251
[29] = tested on: SNB-75
[30] = tested on: SF-268
[31] = tested on: SK-MEL-28
[32] = tested on: UACC-257
[33] = tested on: M14
[34] = tested on: NCI/ADR-RES
[35] = tested on: IGROV-1
[36] = tested on: ACHN
[37] = tested on: SK-MEL-2
[38] = tested on: CCRF-CEM
[39] = tested on: TK-10
[40] = tested on: MDA-MB-231
[41] = tested on: MDA-N
[42] = tested on: DU-145
[43] = tested on: NCI-H522
[44] = tested on: Malme-3M
[45] = tested on: OVCAR-8
[46] = tested on: A498
[47] = tested on: HL-60
[48] = tested on: CAKI-1
[49] = tested on: Hs-578T
[50] = tested on: RPMI-8226
[51] = tested on: RXF 393
[52] = tested on: SK-OV-3
[53] = tested on: KM12
[54] = tested on: T47D
[55] = tested on: UACC-62

SMILES: CC(C)C(=O)Cc1ccc2ccccc2n1
- GI50 [1]: > 100 µM (inactive)
- GI50 [2]: > 100 µM (inactive)
- GI50 [3]: > 100 µM (inactive)
- GI50 [4]: > 100 µM (inactive)
- GI50 [5]: > 100 µM (inactive)
- GI50 [6]: > 100 µM (inactive)
- GI50 [7]: > 100 µM (inactive)
- GI50 [8]: > 100 µM (inactive)
- GI50 [9]: > 100 µM
- GI50 [10]: > 100 µM (inactive)
- GI50 [11]: > 100 µM (inactive)
- GI50 [12]: > 100 µM (inactive)
- GI50 [13]: > 100 µM (inactive)
- GI50 [14]: > 100 µM (inactive)
- GI50 [15]: > 100 µM (inactive)
- GI50 [16]: 70 µM (inactive)
- GI50 [17]: > 100 µM (inactive)
- GI50 [18]: > 100 µM (inactive)
- GI50 [19]: > 100 µM (inactive)
- GI50 [20]: 83.4 µM (inactive)
- GI50 [21]: > 100 µM (inactive)
- GI50 [22]: > 100 µM (inactive)
- GI50 [23]: > 100 µM (inactive)
- GI50 [24]: 89.7 µM (inactive)
- GI50 [25]: 95.5 µM (inactive)
- GI50 [26]: > 100 µM (inactive)
- GI50 [27]: > 100 µM (inactive)
- GI50 [28]: > 100 µM (inactive)
- GI50 [29]: > 100 µM (inactive)
- GI50 [30]: > 100 µM (inactive)
- GI50 [31]: > 100 µM (inactive)
- GI50 [32]: > 100 µM (inactive)
- GI50 [33]: > 100 µM (inactive)
- GI50 [34]: > 100 µM (inactive)
- GI50 [35]: 73.5 µM (inactive)
- GI50 [36]: > 100 µM (inactive)
- GI50 [37]: > 100 µM (inactive)
- GI50 [38]: > 100 µM (inactive)
- GI50 [39]: > 100 µM (inactive)
- GI50 [40]: > 100 µM (inactive)
- GI50 [41]: 55.2 µM (inactive)
- GI50 [42]: > 100 µM (inactive)
- GI50 [43]: 50.5 µM (inactive)
- GI50 [44]: > 100 µM (inactive)
- GI50 [45]: > 100 µM (inactive)
- GI50 [46]: > 100 µM (inactive)
- GI50 [47]: > 100 µM (inactive)
- GI50 [48]: > 100 µM (inactive)
- GI50 [49]: > 100 µM (inactive)
- GI50 [50]: 97 nM (active)
- GI50 [51]: > 100 µM (inactive)
- GI50 [52]: > 100 µM (inactive)
- GI50 [53]: > 100 µM (inactive)
- GI50 [54]: > 100 µM (inactive)
- GI50 [55]: > 100 µM (inactive)
